Reference: BindingDB's records for PubMed 33129590 (Key Laboratory of Technology of Drug Preparation (Zhengzhou …, 2021)

How the values were obtained:
[1] = molecular target: Prostaglandin G/H synthase 2 (Homo sapiens) (UniProt P35354); experiment: Inhibition of COX-2 (unknown origin)
[2] = molecular target: Prostaglandin G/H synthase 1 (Homo sapiens) (UniProt P23219); experiment: Inhibition of COX-1 (unknown origin)
[3] = molecular target: Poly [ADP-ribose] polymerase 1 (Homo sapiens, UniProt P09874); experiment: Displacement of [125I]KX1 from PARP1 in human OVCAR-8 cells incubated for 1 hr by wizard gamma counter analysis
Sequence of Poly [ADP-ribose] polymerase 1 (P09874 whole entry): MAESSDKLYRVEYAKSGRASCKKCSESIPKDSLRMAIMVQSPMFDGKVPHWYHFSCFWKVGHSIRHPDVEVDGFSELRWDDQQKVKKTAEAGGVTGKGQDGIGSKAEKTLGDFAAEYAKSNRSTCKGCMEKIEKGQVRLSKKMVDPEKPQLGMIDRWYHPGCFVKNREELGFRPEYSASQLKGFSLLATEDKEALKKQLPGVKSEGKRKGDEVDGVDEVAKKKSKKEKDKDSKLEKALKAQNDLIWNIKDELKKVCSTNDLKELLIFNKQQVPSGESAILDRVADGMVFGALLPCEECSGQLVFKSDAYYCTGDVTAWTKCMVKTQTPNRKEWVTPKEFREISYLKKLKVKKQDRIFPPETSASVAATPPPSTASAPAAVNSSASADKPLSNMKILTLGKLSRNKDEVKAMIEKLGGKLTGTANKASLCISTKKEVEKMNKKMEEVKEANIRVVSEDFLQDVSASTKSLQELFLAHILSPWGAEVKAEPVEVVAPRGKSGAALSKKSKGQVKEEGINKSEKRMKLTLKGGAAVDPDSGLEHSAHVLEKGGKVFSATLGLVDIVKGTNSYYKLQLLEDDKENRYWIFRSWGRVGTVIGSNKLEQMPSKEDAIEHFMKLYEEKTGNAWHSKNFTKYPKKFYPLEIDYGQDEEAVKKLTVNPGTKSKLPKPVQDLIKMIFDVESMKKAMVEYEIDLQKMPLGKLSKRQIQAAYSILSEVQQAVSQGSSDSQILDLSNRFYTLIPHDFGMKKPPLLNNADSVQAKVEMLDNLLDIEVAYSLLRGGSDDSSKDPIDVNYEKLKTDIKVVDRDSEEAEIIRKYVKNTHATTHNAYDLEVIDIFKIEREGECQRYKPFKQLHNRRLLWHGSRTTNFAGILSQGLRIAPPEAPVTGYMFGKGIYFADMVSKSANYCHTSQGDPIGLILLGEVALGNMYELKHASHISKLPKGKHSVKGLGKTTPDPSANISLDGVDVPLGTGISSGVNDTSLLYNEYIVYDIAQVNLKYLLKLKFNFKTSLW

Sequence of Prostaglandin G/H synthase 2 (Homo sapiens) (P35354 whole entry, looked up): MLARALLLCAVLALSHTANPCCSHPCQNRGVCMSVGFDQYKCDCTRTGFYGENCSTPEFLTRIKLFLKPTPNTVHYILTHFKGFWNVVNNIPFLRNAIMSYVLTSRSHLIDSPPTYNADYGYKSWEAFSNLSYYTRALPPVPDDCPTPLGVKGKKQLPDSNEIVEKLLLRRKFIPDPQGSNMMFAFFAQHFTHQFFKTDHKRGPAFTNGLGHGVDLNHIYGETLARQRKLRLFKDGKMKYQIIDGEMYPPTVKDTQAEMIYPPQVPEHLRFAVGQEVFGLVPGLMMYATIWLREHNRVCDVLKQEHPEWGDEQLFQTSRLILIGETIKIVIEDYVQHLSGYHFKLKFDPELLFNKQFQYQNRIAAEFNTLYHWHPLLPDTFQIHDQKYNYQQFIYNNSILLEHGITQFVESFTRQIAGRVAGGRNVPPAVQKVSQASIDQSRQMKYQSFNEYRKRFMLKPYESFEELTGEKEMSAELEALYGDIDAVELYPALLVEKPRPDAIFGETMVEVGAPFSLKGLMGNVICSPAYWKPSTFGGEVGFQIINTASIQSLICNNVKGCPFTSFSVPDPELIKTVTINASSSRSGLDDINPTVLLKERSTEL

IC50 [1] [nM]	IC50 [2] [nM]	IC50 [3] [nM]	Compound
1400	115000		COc1ccc(-c2nc(N3N=C(c4ccc(F)cc4)CCC3=O)n(C)c(=O)c2C#N)cc1
		44	COC1CC(NC(=O)c2cc(Cc3n[nH]c(=O)c4ccccc34)ccc2F)C1 (stereo not drawn)
